{"source": "patent US7169573B2", "about": "“Method for monitoring coagulability and hypercoagulable states” (Oklahoma Medical Research Foundation, priority 2001, dated 2007)", "key": {"[1]": {"conditions": "cited from earlier work"}, "[2]": {"test_system": "soluble endothelial protein C receptor (sEPCR)", "assay": "Plasma soluble EPCR level by monoclonal antibody-based ELISA in subjects on anticoagulant therapy", "format": "in vivo, human", "conditions": "for [sEPCR]: individual patients taking Sintrom, plasma, ELISA", "procedure": "Soluble EPCR is generated in vitro by metalloproteinase activity induced by thrombin and some inflammatory mediators (Xu et al., 2000). Thus, the inventors chose to determine whether soluble EPCR levels reflected in vivo thrombin generation. To evaluate this, the soluble EPCR levels were determined in patients on oral anticoagulant therapy and compared with soluble EPCR levels found in a normal, apparently healthy adult population (FIGS. 1A and 1B). These samples were obtained from collaborators in France (Dr. M. Grimeaux, Serbio/Diagnostica Stago). The soluble EPCR levels are assayed using a monoclonal antibody-based enzyme-linked immunosorbent assay (ELISA) (U.S. Pat. No. 5,804,392, incorporated by reference herein). […] Previscan is a major oral anticoagulant used in France and Germany. […] The half-life for factor VII is only 3–5 hours, whereas that for prothrombin is 60–100 hrs.\nTo further evaluate the relationship between plasma sEPCR levels and anticoagulant therapy, samples were obtained from a normal adult population and from patients on intravenous unfractionated heparin therapy (FIG. 3). The data shown in FIGS. 3, 4A, 4B and 5 were obtained from samples contributed by a collaborator in Italy (Dr. Armando D'Angelo, Scientific Institute H. S. Rafeale, Milan, Italy).\nPlasma was stored at −80° C. for determination of sEPCR levels by ELISA."}, "[3]": {"test_system": "prothrombin fragment 1+2 (F1+2)", "description": "Blood was taken before the start of anticoagulation and sEPCR levels were determined by ELISA over the course of their therapy. There were 3 patients with atrial fibrillation and one patient each with dilative cardiomyopathy, mitral valve disease, atrial fibrillation+stroke, and deep vein thrombosis (DVT)."}, "[4]": {"conditions": "cited from earlier work", "remark": "listed apart in the source"}, "INR": {"test_system": "INR", "assay": "INR (prothrombin time based) in patients on oral anticoagulant", "format": "in vivo, human", "conditions": "individual patients taking Sintrom, one plasma sample per line"}}, "note": "Several values for one entry are separate records, joined by “and”; a condition that tells them apart may be missing. Equal entries are not always repeated."}
{"compound": "4-hydroxycoumarin [Warfarin]", "values": [{"measurement": "time to maximal blood levels", "setting": "[1]; healthy volunteers, absorbed from the GI tract", "result": 90, "unit": "min"}, {"measurement": "bioavailability", "setting": "[1]; in vivo", "result": "excellent"}, {"measurement": "onset", "setting": "[1]; in vivo", "result": "2 to 7", "unit": "days"}, {"measurement": "plasma sEPCR levels during Warfarin treatment period", "setting": "[2]; 6 normal adult subjects, Warfarin 7 days, FIG. 4A", "result": "declined"}, {"measurement": "lag time before sEPCR levels declined after initiation of Warfarin", "setting": "[2]; normal adult subjects", "result": "24 to 48", "unit": "h"}, {"measurement": "time after cessation of Warfarin until sEPCR levels began to increase", "setting": "[2]; normal adult subjects", "result": "24 to 48", "unit": "h"}, {"measurement": "F1+2 level, % of initial values", "setting": "[3]; healthy subjects, day 5 of Warfarin, P<0.05", "result": 39, "unit": "%"}, {"measurement": "F1+2 levels after initiation of Warfarin therapy", "setting": "[3]; seven patients starting oral anticoagulation, FIG. 7", "result": "declined in most of the patients"}, {"measurement": "intracranial bleeding, share of patients", "setting": "[4]; during each year of therapy", "result": "0.1–0.5%"}, {"measurement": "major bleeding, share of people treated", "setting": "[4]; during each year of therapy", "result": "1–8%"}, {"measurement": "Warfarin-induced skin necrosis, share of patients", "setting": "[4]; in vivo", "result": "0.01–0.1%"}]}
{"compound": "O=C1c2ccccc2C(=O)C1c1ccc(F)cc1", "note": "[Previscan]", "values": [{"measurement": "half-life (in words)", "setting": "[1]; in vivo", "result": "long half-life (days)"}]}
{"compound": "CC(=O)CC(c1ccc([N+](=O)[O-])cc1)c1c(O)c2ccccc2oc1=O", "note": "(centres unmarked) [Sintrom]", "values": [{"measurement": "INR", "setting": "INR", "result": "2.0 and 2.6 and 3.3 and 3.6"}, {"measurement": "INR", "setting": "INR; listed as SINTROM", "result": "2.6 (2×) and 2.7 (2×) and 2.8 and 3.1 (2×) and 3.3 (2×) and 3.4 and 3.5 and 3.6 and 4.5 and >5.0 (4×) and 1.5 and 1.8 and 1.9 and 2.0"}, {"measurement": "half-life", "setting": "[1]; Sintrom", "result": "~8.5", "unit": "h"}, {"measurement": "[sEPCR]", "setting": "[2]", "result": "369 ng/mL and 357 ng/mL and 198 ng/mL and 293 ng/mL"}, {"measurement": "[sEPCR]", "setting": "[2]; listed as SINTROM", "result": "357 ng/ml and 131 ng/ml and 92 ng/ml and 127 ng/ml and 59 ng/ml and 61 ng/ml (2×) and 198 ng/ml and 171 ng/ml and 164 ng/ml and 56 ng/ml (2×) and 293 ng/ml and 172 ng/ml and 54 ng/ml and 94 ng/ml and 140 ng/ml and 135 ng/ml and 167 ng/ml and 369 ng/ml and 63 ng/ml"}]}
